Assay results as given in patent publication US20040072811A1, “Use of antiprogestins for the induction of apoptosis in a cell” (priority 2000, published 2004).
Entries after “also recorded” stand apart in the source; their conditions may differ.

What was measured:
T47D cells = assay: Antiproliferative activity in vitro in the T47D cell line (estradiol-stimulated, crystal violet); assay type: cell-based, human; settings: 0.1 nM estradiol, 6 days
Protocol: T47D cells were grown in charcoal-treated serum supplemented with 0.1 nM E2 (estradiol) plus antiprogestin (I) for 6 days with one medium change. Following fixation and subsequent staining with crystal violet, the absorbance was recorded and values normalized to the absorbance of untreated controls as described in R. B. Lichtner, J. Steroid Biochem. Mol. Biol. 1999, 71; 181-189. The TUNEL assay is performed analogous to above Example 5 with the only difference that instead of tissue sections cells that are cultivated on microscopic slides are used for the assay.

[1] = test system: DMBA-induced mammary carcinoma of the rat; assay: Dose-response study in the DMBA-induced mammary tumor model; assay type: in vivo, Sprague-Dawley rats; settings: 5 mg/kg s.c. daily, 4 weeks
Protocol: Immature female Sprague-Dawley rats (49-51 days old; 10 animals/group) were used in this study. Mammary tumors were induced by a single oral administration of 10 mg 7,12-dimethylbenz[a]anthracene (DMBA, Serva/Heidelberg). Rats with at least one established tumor with a size of more than 150 mm^2 were treated for 4 weeks by: 1) solvent control, 2) ovariectomy at treatment start, 3) antiprogestin (I), 0,5 mg/kg s.c., 4) antiprogestin (1), 2 mg/kg s.c., 5) antiprogestin (I), 5 mg/kg s.c., 6) antiprogestin (1), 10 mg/kg s.c., and 7) onapristone, 5 mg/kg, s.c., daily. As a parameter for growth inhibition the change of tumor area (in % with respect to initial tumor size) determined by weekly caliper measurements was used. For statistical analysis of intergroup differences of mean values the Kruskal-Wallis-test was used. For a further description and evaluation of the DMBA prevention model, see R. G. Metha, European Journal of Cancer 36 (2000), pp. 1275-1282.

[2] = test system: NMU-induced mammary carcinoma of the rat; assay: Tumor growth inhibition in NMU-induced breast cancer model in rat; assay type: in vivo, Sprague-Dawley rats; settings: 5 mg/kg/day, 4 weeks
Protocol: Tumors were induced by a single intravenous injection of NMU (nitrosomethylurea, 50 mg/kg) in female Sprague-Dawley rats (obtained from Tierzucht Schönwalde, age 50-55 days). Starting 10 days later, rats with at least one established tumor were treated for 4 weeks by: 1) solvent control, 2) ovariectomy at treatment start, 3) antiprogestin (I), 1.0 mg/kg/day, 4) antiprogestin (1), 0.5 mg/kg/day and 5) onapristone, 5 mg/kg/day. As a parameter for growth inhibition the change of tumor area (in % of initial tumor size) determined by weekly caliper measurements was used. For statistical analysis of intergroup differences of mean values the Kruskal-Wallis-test was used.

CN(CCCCC[C@@H]1Cc2cc(O)ccc2[C@@H]2[C@@H]1[C@@H]1CC[C@H](O)[C@@]1(C)C[C@@H]2F)CCCSCCCC(F)(F)C(F)(F)F [11β-fluoro-7α-{5-[N-methyl-N-3-(4,4,5,5,5-pentafluoropentylthio)-propylamino]-pentyl}-estra-1,3,5(10)-trien-3,17β-diol]
inhibition of estradiol-stimulated T47D cell growth (T47D cells): distinctly less effective than antiprogestin (I)

CN(C)c1ccc([C@H]2C[C@]3(C)[C@@H](CC[C@]3(O)CCCO)[C@@H]3CCC4=CC(=O)CCC4=C32)cc1 [onapristone, reference compound]
tumor growth inhibiting effect relative to antiprogestin (I) [1]: distinctly less effective than antiprogestin (I)
inhibition of estradiol-stimulated T47D cell growth (T47D cells): did not show any inhibiting effect; also recorded: no reducing effect on cell growth
tumor growth inhibiting effect relative to antiprogestin (I) at 0.5 mg/kg [2]: distinctly less effective than antiprogestin (1)
